According to paper PMC7490411 (Signal Transduction and Targeted Therapy, 2020):

Assays:
[1] = tested on: REC-1 cells bone marrow engraftment; assay: REC-1 cells bone marrow engrafted mouse model; type: in vivo; details: REC-1 bone marrow engraftment, 100 mg/kg/day p.o.
Procedure: Five-week old female NOD-SCID mice were purchased from the Beijing Vital River Laboratory Animal Technology Co., Ltd (Beijing, China). All animals were housed in a specific pathogen free facility and used according to the animal care regulations of Hefei Institutes of Physical Science, Chinese Academy of Sciences. NOD-SCID mice were induced by intraperitoneal injection of cyclophosphamide (CTX) 50 mg/kg daily for two days. 8 million REC-1 cells in 0.3 mL RPMI1640 medium were injected by intravenous after 24 h. […] Mice were monitored daily and were euthanized when moribund or at early signs of hind limb paralysis.

[2] = tested on: TMD8 cell (DLBCL)-inoculated xenograft; assay: TMD8 cell subcutaneous xenograft tumor model; type: in vivo; details: TMD8 xenograft, 100 mg/kg/day, 28 days
[3] = drug enrichment in the tumor; type: in vivo, mouse; details: 100 mg/kg
[4] = tested on: REC-1 cell (MCL)-inoculated xenograft; assay: REC-1 cell subcutaneous xenograft tumor model; type: in vivo; details: REC-1 xenograft, 100 mg/kg/day, 14 days
[5] = tested on: Pfeiffer; assay: anti-proliferative CellTiter-Glo assay; type: cell-based; details: Homo sapiens, 72 h
Procedure: (§1) Cell viability was measured using the CellTiter–Glo assay (Promega, USA) according to the manufacturer’s instructions, and […] was measured in a Bio-red Microplate reader (Bio-Red, USA).

[6] = tested on: Raji; assay: anti-proliferative CellTiter-Glo assay; type: cell-based; details: Homo sapiens, 72 h
Procedure: as §1

[7] = tested on: REC-1; assay: anti-proliferative CellTiter-Glo assay; type: cell-based; details: Homo sapiens, Rec1; REC-1, 72 h
Procedure: as §1

[8] = tested on: SU-DHL-2; assay: anti-proliferative CellTiter-Glo assay; type: cell-based; details: Homo sapiens, SU-DHL-2, 72 h
Procedure: as §1

[9] = tested on: JEKO-1; assay: anti-proliferative CellTiter-Glo assay; type: cell-based; details: Homo sapiens, JeKo-1, 72 h
Procedure: as §1

[10] = tested on: U2932; assay: anti-proliferative CellTiter-Glo assay; type: cell-based; details: Homo sapiens, U2932, 72 h
Procedure: as §1

[11] = tested on: WSU-DLCL2; assay: anti-proliferative CellTiter-Glo assay; type: cell-based; details: Homo sapiens, WSUDLCL2; WSU-DLCL2, 72 h
Procedure: as §1

[12] = tested on: TMD8; assay: anti-proliferative CellTiter-Glo assay; type: cell-based; details: Homo sapiens, TMD8, 72 h
Procedure: as §1

[13] = tested on: SU-DHL-6; assay: anti-proliferative CellTiter-Glo assay; type: cell-based; details: Homo sapiens, SU-DHL-6, 72 h
Procedure: as §1

[14] = tested on: DOHH2; assay: anti-proliferative CellTiter-Glo assay; type: cell-based; details: Homo sapiens, DOHH-2; DOHH2, 72 h
Procedure: as §1

[15] = tested on: Ramos; assay: anti-proliferative CellTiter-Glo assay; type: cell-based; details: Homo sapiens, 72 h
Procedure: as §1

[16] = tested on: Mino cells; assay: NK-cell-mediated ADCC, LDH release cytotoxicity assay, Rituximab; type: cell-based, human
Procedure: (§2) The cytotoxicity of NK cells was measured using the CyQUANT™ LDH Cytotoxicity Assay Kit (Invitrogen™, #C20300) according to the manufacturer’s instructions. Briefly, enriched NK cells (6 × 10^5 /ml) were cultured with the same volume of Mino cell and SK-OV-3 cell (1-2 × 10^4 /ml) in a 96-well plate for 4 h with Rituximab and Herceptin (10 μg/mL) and CHMFL-BTK-85 or PCI32765 at 37°C in a humidified CO2 incubator prior to removal of the supernatant for lactate dehydrogenase (LDH) release measurements. Calculate % Cytotoxicity by using the following formula: %Cytotoxicity = (Compound-treated LDH activity-Spontaneous LDH activity)/(Maximum LDH activity-Spontaneous LDH activity)*100.

[17] = tested on: SK-OV-3 cells; assay: NK-cell-mediated ADCC, LDH release cytotoxicity assay, Herceptin; type: cell-based, human
Procedure: as §2

C=CC(=O)N1CCC[C@@H](n2nc(-c3ccc(Oc4ccccc4)cc3)c3c(N)ncnc32)C1 [Ibrutinib, reference compound]
median survival time [1]: 39 days | TGI [2]: 90% | concentration in the tumor [3]: 1.23 µM | TGI [4]: 59% | GI50 [5]: 1200 ± 120 nM | GI50 [6]: 6.1 ± 1.8 µM | GI50 [7]: 30 ± 21 nM | GI50 [8]: 4.9 ± 0.2 µM | GI50 [9]: 2000 ± 150 nM | GI50 [10]: 1400 ± 1200 nM | GI50 [11]: 180 ± 100 nM | GI50 [12]: 1 ± 0.1 nM | GI50 [13]: 370 ± 55 nM | GI50 [14]: 260 ± 180 nM | GI50 [15]: 3.8 ± 0.66 µM | effect on antibody-dependent NK-cell-mediated cytotoxicity (ADCC) [16]: significantly impaired | effect on antibody-dependent NK-cell-mediated cytotoxicity (ADCC) [17]: significantly impaired

CC#CC(=O)N1CCC[C@H]1c1nc(-c2ccc(C(=O)Nc3ccccn3)cc2)c2c(N)nccn12 [Acalabrutinib]
concentration in the tumor [3]: 1.30 µM | TGI [4]: 58% | GI50 [7]: 30 ± 2 nM | GI50 [12]: 20 ± 3 nM
